We go through 9 molecules from patent US10829473B2, “Modulators of the cystic fibrosis transmembrane conductance regulator protein and methods of use” (AbbVie Overseas S.Á.R.L., priority 2017, dated 2020).

SMILES strings stand for the structures. Like-named read-outs stand apart in the source and are kept apart here. Some results are limits rather than exact numbers.

The target in this assay is T1, F508delCFTR (Homo sapiens, UniProt P13569, DEL508-508).
T1 construct: expressed in transfected cells; host or cells: CFBE41o- human lung derived epithelial cells (CFBE41o-F508delCFTR-HRP), doxycycline-inducible
In words: Cell Surface Expression-Horse Radish Peroxidase (CSE-HRP) Assay.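 On EC50 (with co-corrector): co-corrector chromenyl benzoic acid corrector at 2 or 3 µM.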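 On Maximum % activity (without co-corrector): % of on-plate positive control chromenyl benzoic acid corrector at 2 or 3 µM.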 It counts as cell-based. The note with it: for Maximum % activity (with co-corrector) / Emax: maximum at any tested concentration; for Emax: read-out: Maximum % activity (without co-corrector). A digest of the protocol:
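Corrector compounds were given as 8-point 3-fold series from 20 or 30 μM, with or without a 2 μM co-corrector, for 18-24 h at 33 °C. Surface HRP was read by luminol luminescence as % of positive control; variable-Hill-slope sigmoidal fitting gave EC50 from triplicate plates.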

[1] abbreviates: test compound alone, without co-corrector, read-out: EC50 (without co-corrector).
Where [2] appears, read: with co-corrector, read-out: EC50 (with co-corrector).

T1 sequence (P13569 with tags, fused parts or gaps DEL508-508): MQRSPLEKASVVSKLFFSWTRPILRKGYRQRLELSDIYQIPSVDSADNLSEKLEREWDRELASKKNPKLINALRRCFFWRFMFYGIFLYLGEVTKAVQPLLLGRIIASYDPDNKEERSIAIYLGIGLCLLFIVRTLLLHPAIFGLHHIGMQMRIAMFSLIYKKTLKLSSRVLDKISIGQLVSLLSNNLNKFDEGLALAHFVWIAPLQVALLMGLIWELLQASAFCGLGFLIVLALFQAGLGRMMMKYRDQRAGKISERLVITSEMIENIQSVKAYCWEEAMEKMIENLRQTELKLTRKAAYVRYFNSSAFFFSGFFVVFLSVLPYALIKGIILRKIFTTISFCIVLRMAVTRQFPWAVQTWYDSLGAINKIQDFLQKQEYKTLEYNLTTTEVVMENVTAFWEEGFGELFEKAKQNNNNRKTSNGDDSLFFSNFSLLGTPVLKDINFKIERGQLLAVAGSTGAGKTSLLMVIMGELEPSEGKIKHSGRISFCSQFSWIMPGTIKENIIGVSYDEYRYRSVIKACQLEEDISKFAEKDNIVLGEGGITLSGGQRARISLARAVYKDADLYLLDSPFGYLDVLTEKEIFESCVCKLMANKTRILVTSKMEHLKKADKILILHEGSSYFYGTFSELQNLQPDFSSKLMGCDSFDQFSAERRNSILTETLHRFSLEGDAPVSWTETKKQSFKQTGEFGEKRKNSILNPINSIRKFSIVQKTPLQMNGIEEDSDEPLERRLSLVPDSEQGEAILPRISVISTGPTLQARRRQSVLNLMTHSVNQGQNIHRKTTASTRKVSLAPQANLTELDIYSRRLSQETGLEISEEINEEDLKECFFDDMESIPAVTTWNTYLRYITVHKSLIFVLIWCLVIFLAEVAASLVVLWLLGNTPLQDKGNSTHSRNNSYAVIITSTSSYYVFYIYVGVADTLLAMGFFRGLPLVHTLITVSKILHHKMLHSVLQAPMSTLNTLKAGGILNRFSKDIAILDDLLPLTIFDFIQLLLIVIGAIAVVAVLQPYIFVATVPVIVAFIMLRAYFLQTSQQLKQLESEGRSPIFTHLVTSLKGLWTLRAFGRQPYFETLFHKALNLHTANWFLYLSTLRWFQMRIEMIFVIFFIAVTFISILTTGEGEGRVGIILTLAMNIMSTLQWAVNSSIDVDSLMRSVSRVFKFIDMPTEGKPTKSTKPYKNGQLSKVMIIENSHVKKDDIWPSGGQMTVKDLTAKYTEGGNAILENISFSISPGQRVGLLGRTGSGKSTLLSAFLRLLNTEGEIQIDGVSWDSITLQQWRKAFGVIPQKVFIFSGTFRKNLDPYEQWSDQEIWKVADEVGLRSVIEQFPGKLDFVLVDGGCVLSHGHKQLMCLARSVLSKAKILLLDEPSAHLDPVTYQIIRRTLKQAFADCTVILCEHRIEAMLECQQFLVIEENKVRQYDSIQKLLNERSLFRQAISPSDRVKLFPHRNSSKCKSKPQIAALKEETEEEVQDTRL

For orientation: EC50 means the concentration giving half of the maximal effect. On to `COc1ccc(C2CCC2)cc1C1(C(=O)NS(=O)(=O)c2cccc3c2CCCN3)CC1` [Example I-16, 1-(5-cyclobutyl-2-methoxyphenyl)-N-(1,2,3,4-tetrahydroquinoline-5-sulfonyl)cyclopropane-1-carboxamide], for which the EC50 by setting is: under setting [1], 3 to 10 µM; under setting [2], below 3 µM. The “Maximum % activity (with co-corrector)” value (with co-corrector) is given as “+++ (≥350)”. For the same molecule, the Emax (without co-corrector) was above 150%.
Regarding `COc1ccc(C2CCC2)cc1C1(C(=O)NS(=O)(=O)c2cccc3ncccc23)CC1` [Example I-17, 1-(5-cyclobutyl-2-methoxyphenyl)-N-(quinoline-5-sulfonyl)cyclopropane-1-carboxamide], the EC50 by setting is: under setting [1], below 3 µM; under setting [2], below 3 µM. Under “with co-corrector”, the “Maximum % activity (with co-corrector)” value is “+++ (≥350)”. Besides, the Emax (without co-corrector) is above 150%.
As to `COc1ccc(Br)cc1C1(C(=O)NS(=O)(=O)c2cccc3ncccc23)CC1` [Example I-18, 1-(5-bromo-2-methoxyphenyl)-N-(quinoline-5-sulfonyl)cyclopropane-1-carboxamide], the half-maximal effective concentration (EC50) reads like this: under setting [1], below 3 µM; under setting [2], below 3 µM. In addition, the “Maximum % activity (with co-corrector)” value (with co-corrector) is reported as “+++ (≥350)”. For the same molecule, where the note is “without co-corrector”, the Emax was above 150%.
Consider `COc1ncc(C2CCC2)cc1C1(C(=O)NS(=O)(=O)c2cccn3nccc23)CC1` [Example I-19, 1-(5-cyclobutyl-2-methoxypyridin-3-yl)-N-(pyrazolo[1,5-a]pyridine-4-sulfonyl)cyclopropane-1-carboxamide], for which the concentration giving a half-maximal response (EC50) runs as follows: under setting [1], below 3 µM; under setting [2], below 3 µM. Moreover, under “with co-corrector”, the “Maximum % activity (with co-corrector)” value is given as “+++ (≥350)”. For the same molecule, for the setting “without co-corrector”, the Emax was above 150%.
On to `COc1ncc(C2CCC2)cc1C1(C(=O)NS(=O)(=O)c2cccc3ccn(C)c23)CC1` [Example I-20, 1-(5-cyclobutyl-2-methoxypyridin-3-yl)-N-(1-methyl-1H-indole-7-sulfonyl)cyclopropane-1-carboxamide], for which the EC50 runs as follows: under setting [1], below 3 µM; under setting [2], below 3 µM. Moreover, the “Maximum % activity (with co-corrector)” value (with co-corrector) is reported as “+++ (≥350)”. In addition, where the note is “without co-corrector”, the Emax was above 150%.
For the molecule `COc1ncc(C2CCC2)cc1C1(C(=O)NS(=O)(=O)c2cccc3[nH]ccc23)CC1` [Example I-21, 1-(5-cyclobutyl-2-methoxypyridin-3-yl)-N-(1H-indole-4-sulfonyl)cyclopropane-1-carboxamide], the 50% effective concentration (EC50) runs as follows: under setting [1], below 3 µM; under setting [2], below 3 µM. In addition, the “Maximum % activity (with co-corrector)” value (with co-corrector) is “+++ (≥350)”. For the same molecule, the Emax (without co-corrector) was above 150%.
For `COc1ncc(C(F)(F)F)cc1C1(C(=O)NS(=O)(=O)c2cccc3[nH]ccc23)CC1` [Example I-22, N-(1H-indole-4-sulfonyl)-1-[2-methoxy-5-(trifluoromethyl)pyridin-3-yl]cyclopropane-1-carboxamide], the EC50 is, setting by setting: under setting [1], 3 to 10 µM; under setting [2], below 3 µM. Moreover, under “with co-corrector”, the “Maximum % activity (with co-corrector)” value is “+++ (≥350)”. In addition, the Emax (without co-corrector) was above 150%.
Regarding `COc1ccc(C2CCC2)cc1C1(C(=O)NS(=O)(=O)c2cccn3nccc23)CCC1` [Example I-23, 1-(5-cyclobutyl-2-methoxyphenyl)-N-(pyrazolo[1,5-a]pyridine-4-sulfonyl)cyclobutane-1-carboxamide], the EC50 under setting [1] was in the range of 3 to 10 µM and the EC50 under setting [2] is below 3 µM. In addition, the “Maximum % activity (with co-corrector)” value (with co-corrector) is given as “+++ (≥350)”. In addition, the Emax (without co-corrector) was above 150%.
For the molecule `COc1ccc(C2CCC2)cc1C1(C(=O)NS(=O)(=O)c2cccc3ncn(C)c23)CCC1` [Example I-24, 1-(5-cyclobutyl-2-methoxyphenyl)-N-(1-methyl-1H-benzimidazole-7-sulfonyl)cyclobutane-1-carboxamide], the concentration giving a half-maximal response (EC50) is, setting by setting: under setting [1], below 3 µM; under setting [2], below 3 µM. Also, the “Maximum % activity (with co-corrector)” value (with co-corrector) was “+++ (≥350)”. In addition, the Emax (without co-corrector) is above 150%.
